Experimental data reported in article PMC9856672, “SGC-CAMKK2-1: A Chemical Probe for CAMKK2” (Cells, 2023).

Key:
PRKX = molecular target: T1, PRKX (Homo sapiens, UniProt P51817); experiment: KINOMEscan 1 μM, PRKX; type: binding; details: 1000 nM; Entrez PRKX; read-out: Percent Control
T1 construct: purchased Eurofins DiscoverX KINOMEscan
Excerpt: (§1) Supplement cells-12-00287-s001.zip/File S2. KinomeScan data for the CAMKK2 probe and negative control.xlsx, sheet "SGC-CAMKK2-1" | column: Percent Control

FLT3(ITD,F691L) = experiment: KINOMEscan 1 μM, FLT3(ITD,F691L); type: binding, human; details: 1000 nM; Entrez FLT3
Excerpt: as §1

TLK1 = molecular target: T2, TLK1 (Homo sapiens, UniProt Q9UKI8); experiment: KINOMEscan 1 μM, TLK1; type: binding; details: 1000 nM; Entrez TLK1; read-out: Percent Control
T2 construct: purchased Eurofins DiscoverX KINOMEscan
Excerpt: as §1

ERK4 = molecular target: T3, ERK4 (Homo sapiens, UniProt P31152); experiment: KINOMEscan 1 μM, ERK4; type: binding; details: 1000 nM; Entrez MAPK4; read-out: Percent Control
T3 construct: purchased Eurofins DiscoverX KINOMEscan
Excerpt: as §1

CDKL1 = molecular target: T4, CDKL1 (Homo sapiens, UniProt Q00532); experiment: KINOMEscan 1 μM, CDKL1; type: binding; details: 1000 nM; Entrez CDKL1; read-out: Percent Control
T4 construct: purchased Eurofins DiscoverX KINOMEscan
Excerpt: as §1

AKT2 = molecular target: T5, AKT2 (Homo sapiens, UniProt P31751); experiment: KINOMEscan 1 μM, AKT2; type: binding; details: 1000 nM; Entrez AKT2; read-out: Percent Control
T5 construct: purchased Eurofins DiscoverX KINOMEscan
Excerpt: as §1

ERBB2 = molecular target: T6, ERBB2 (Homo sapiens, UniProt P04626); experiment: KINOMEscan 1 μM, ERBB2; type: binding; details: 1000 nM; Entrez ERBB2; read-out: Percent Control
T6 construct: purchased Eurofins DiscoverX KINOMEscan
Excerpt: as §1

CASK = molecular target: T7, CASK (Homo sapiens, UniProt O14936); experiment: KINOMEscan 1 μM, CASK; type: binding; details: 1000 nM; Entrez CASK; read-out: Percent Control
T7 construct: purchased Eurofins DiscoverX KINOMEscan
Excerpt: as §1

ERBB4 = molecular target: T8, ERBB4 (Homo sapiens, UniProt Q15303); experiment: KINOMEscan 1 μM, ERBB4; type: binding; details: 1000 nM; Entrez ERBB4; read-out: Percent Control
T8 construct: purchased Eurofins DiscoverX KINOMEscan
Excerpt: as §1

ANKK1 = molecular target: T9, ANKK1 (Homo sapiens, UniProt Q8NFD2); experiment: KINOMEscan 1 μM, ANKK1; type: binding; details: 1000 nM; Entrez ANKK1; read-out: Percent Control
T9 construct: purchased Eurofins DiscoverX KINOMEscan
Excerpt: as §1

FLT3-autoinhibited [1] = molecular target: T10, FLT3-autoinhibited (Homo sapiens, UniProt P36888); experiment: KINOMEscan 1 μM, FLT3-autoinhibited; type: binding; details: 1000 nM; Entrez FLT3; read-out: Percent Control
T10 construct: purchased Eurofins DiscoverX KINOMEscan
Excerpt: as §1

[2] = molecular target: T11, ABL1(F317I)-nonphosphorylated (Homo sapiens, UniProt P00519, F317I); experiment: KINOMEscan 1 μM, ABL1(F317I)-nonphosphorylated; type: binding; details: 1000 nM; Entrez ABL1; read-out: Percent Control
T11 construct: purchased Eurofins DiscoverX KINOMEscan
Excerpt: as §1

MRCKB = molecular target: T12, MRCKB (Homo sapiens, UniProt Q9Y5S2); experiment: KINOMEscan 1 μM, MRCKB; type: binding; details: 1000 nM; Entrez CDC42BPB; read-out: Percent Control
T12 construct: purchased Eurofins DiscoverX KINOMEscan
Excerpt: as §1

FLT1 = molecular target: T13, FLT1 (Homo sapiens, UniProt P17948); experiment: KINOMEscan 1 μM, FLT1; type: binding; details: 1000 nM; Entrez FLT1; read-out: Percent Control
T13 construct: purchased Eurofins DiscoverX KINOMEscan
Excerpt: as §1

TSSK1B = molecular target: T14, TSSK1B (Homo sapiens, UniProt Q9BXA7); experiment: KINOMEscan at 1 μM, TSSK1B; type: binding; details: 1000 nM, read-out: Percent Control
T14 construct: purchased Eurofins DiscoverX KINOMEscan
Excerpt: (§2) Supplement cells-12-00287-s001.zip/File S2. KinomeScan data for the CAMKK2 probe and negative control.xlsx, sheet "SGC-CAMKK2-1N" | column: Percent Control

EGFR(L747-T751del,Sins) = experiment: KINOMEscan binding assay at 1 μM, EGFR(L747-T751del,Sins); set-up: species or system human; details: Compound Concentration 1000 nM
Excerpt: as §2

[3] = molecular target: T11, ABL1(F317I)-nonphosphorylated; experiment: KINOMEscan at 1 μM, ABL1(F317I)-nonphosphorylated; type: binding; details: 1000 nM, read-out: Percent Control
Excerpt: as §2

GAK = molecular target: T15, GAK (Homo sapiens, UniProt O14976); experiment: KINOMEscan at 1 μM, GAK; type: binding; details: 1000 nM, read-out: Percent Control
T15 construct: purchased Eurofins DiscoverX KINOMEscan
Excerpt: as §2

WNK3 = molecular target: T16, WNK3 (Homo sapiens, UniProt Q9BYP7); experiment: KINOMEscan at 1 μM, WNK3; type: binding; details: 1000 nM, read-out: Percent Control
T16 construct: purchased Eurofins DiscoverX KINOMEscan
Excerpt: as §2

NIM1 = molecular target: T17, NIM1 (Homo sapiens, UniProt Q8IY84); experiment: KINOMEscan at 1 μM, NIM1; type: binding; details: 1000 nM, read-out: Percent Control
T17 construct: purchased Eurofins DiscoverX KINOMEscan
Excerpt: as §2

EGFR(L861Q) = molecular target: T18, EGFR(L861Q) (Homo sapiens, UniProt P00533, L861Q); experiment: KINOMEscan binding assay at 1 μM, EGFR(L861Q); details: Compound Concentration 1000 nM; read-out: Percent Control
T18 construct: purchased Eurofins DiscoverX KINOMEscan
Excerpt: as §2

SIK = molecular target: T19, SIK (Homo sapiens, UniProt P57059); experiment: KINOMEscan binding assay at 1 μM, SIK; details: Compound Concentration 1000 nM; read-out: Percent Control
T19 construct: purchased Eurofins DiscoverX KINOMEscan
Excerpt: as §2

PIK3CA(H1047Y) = molecular target: T20, PIK3CA(H1047Y) (Homo sapiens, UniProt P42336, H1047Y); experiment: KINOMEscan at 1 μM, PIK3CA(H1047Y); type: binding; details: 1000 nM, read-out: Percent Control
T20 construct: purchased Eurofins DiscoverX KINOMEscan
Excerpt: as §2

KIT(A829P) = molecular target: T21, KIT(A829P) (Homo sapiens, UniProt P10721, A829P); experiment: KINOMEscan at 1 μM, KIT(A829P); type: binding; details: 1000 nM, read-out: Percent Control
T21 construct: purchased Eurofins DiscoverX KINOMEscan
Excerpt: as §2

PRKCI = molecular target: T22, PRKCI (Homo sapiens, UniProt P41743); experiment: KINOMEscan at 1 μM, PRKCI; type: binding; details: 1000 nM, read-out: Percent Control
T22 construct: purchased Eurofins DiscoverX KINOMEscan
Excerpt: as §2

STK33 = molecular target: T23, STK33 (Homo sapiens, UniProt Q9BYT3); experiment: KINOMEscan binding assay at 1 μM, STK33; details: Compound Concentration 1000 nM; read-out: Percent Control
T23 construct: purchased Eurofins DiscoverX KINOMEscan
Excerpt: as §2

[4] = molecular target: T24, ABL1(M351T)-phosphorylated (Homo sapiens, UniProt P00519, M351T); experiment: KINOMEscan at 1 μM, ABL1(M351T)-phosphorylated; type: binding; details: 1000 nM, read-out: Percent Control
T24 construct: purchased Eurofins DiscoverX KINOMEscan
Excerpt: as §2

DAPK3 = molecular target: T25, DAPK3 (Homo sapiens, UniProt O43293); experiment: KINOMEscan at 1 μM, DAPK3; type: binding; details: 1000 nM, read-out: Percent Control
T25 construct: purchased Eurofins DiscoverX KINOMEscan
Excerpt: as §2

EGFR(E746-A750del) = molecular target: T26, EGFR(E746-A750del) (Homo sapiens, UniProt P00533, DEL746-750); experiment: KINOMEscan at 1 μM, EGFR(E746-A750del); type: binding; details: 1000 nM, read-out: Percent Control
T26 construct: purchased Eurofins DiscoverX KINOMEscan
Excerpt: as §2

FLT3(R834Q) = molecular target: T27, FLT3(R834Q) (Homo sapiens, UniProt P36888, R834Q); experiment: KINOMEscan at 1 μM, FLT3(R834Q); type: binding; details: 1000 nM, read-out: Percent Control
T27 construct: purchased Eurofins DiscoverX KINOMEscan
Excerpt: as §2

FLT3-autoinhibited [5] = molecular target: T10, FLT3-autoinhibited; experiment: KINOMEscan at 1 μM, FLT3-autoinhibited; type: binding; details: 1000 nM, read-out: Percent Control
Excerpt: as §2

MTOR = molecular target: T28, MTOR (Homo sapiens, UniProt P42345); experiment: KINOMEscan binding assay at 1 μM, MTOR; details: Compound Concentration 1000 nM; read-out: Percent Control
T28 construct: purchased Eurofins DiscoverX KINOMEscan
Excerpt: as §2

CDK11 = molecular target: T29, CDK11 (Homo sapiens, UniProt Q9BWU1); experiment: KINOMEscan at 1 μM, CDK11; type: binding; details: 1000 nM, read-out: Percent Control
T29 construct: purchased Eurofins DiscoverX KINOMEscan
Excerpt: as §2

CSNK1G3 = molecular target: T30, CSNK1G3 (Homo sapiens, UniProt Q9Y6M4); experiment: KINOMEscan at 1 μM, CSNK1G3; type: binding; details: 1000 nM, read-out: Percent Control
T30 construct: purchased Eurofins DiscoverX KINOMEscan
Excerpt: as §2

T26 sequence (P00533 with tags, fused parts or gaps DEL746-750 limits assumed): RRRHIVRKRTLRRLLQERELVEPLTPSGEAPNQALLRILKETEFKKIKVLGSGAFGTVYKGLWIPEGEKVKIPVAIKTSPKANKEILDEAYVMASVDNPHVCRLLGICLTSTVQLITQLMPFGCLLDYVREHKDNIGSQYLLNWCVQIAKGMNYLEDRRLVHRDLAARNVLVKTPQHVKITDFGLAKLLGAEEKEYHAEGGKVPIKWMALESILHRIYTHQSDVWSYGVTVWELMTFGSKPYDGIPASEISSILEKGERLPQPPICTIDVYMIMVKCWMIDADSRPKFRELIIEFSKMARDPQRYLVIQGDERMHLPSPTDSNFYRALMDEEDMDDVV
T12 sequence (Q9Y5S2 whole entry): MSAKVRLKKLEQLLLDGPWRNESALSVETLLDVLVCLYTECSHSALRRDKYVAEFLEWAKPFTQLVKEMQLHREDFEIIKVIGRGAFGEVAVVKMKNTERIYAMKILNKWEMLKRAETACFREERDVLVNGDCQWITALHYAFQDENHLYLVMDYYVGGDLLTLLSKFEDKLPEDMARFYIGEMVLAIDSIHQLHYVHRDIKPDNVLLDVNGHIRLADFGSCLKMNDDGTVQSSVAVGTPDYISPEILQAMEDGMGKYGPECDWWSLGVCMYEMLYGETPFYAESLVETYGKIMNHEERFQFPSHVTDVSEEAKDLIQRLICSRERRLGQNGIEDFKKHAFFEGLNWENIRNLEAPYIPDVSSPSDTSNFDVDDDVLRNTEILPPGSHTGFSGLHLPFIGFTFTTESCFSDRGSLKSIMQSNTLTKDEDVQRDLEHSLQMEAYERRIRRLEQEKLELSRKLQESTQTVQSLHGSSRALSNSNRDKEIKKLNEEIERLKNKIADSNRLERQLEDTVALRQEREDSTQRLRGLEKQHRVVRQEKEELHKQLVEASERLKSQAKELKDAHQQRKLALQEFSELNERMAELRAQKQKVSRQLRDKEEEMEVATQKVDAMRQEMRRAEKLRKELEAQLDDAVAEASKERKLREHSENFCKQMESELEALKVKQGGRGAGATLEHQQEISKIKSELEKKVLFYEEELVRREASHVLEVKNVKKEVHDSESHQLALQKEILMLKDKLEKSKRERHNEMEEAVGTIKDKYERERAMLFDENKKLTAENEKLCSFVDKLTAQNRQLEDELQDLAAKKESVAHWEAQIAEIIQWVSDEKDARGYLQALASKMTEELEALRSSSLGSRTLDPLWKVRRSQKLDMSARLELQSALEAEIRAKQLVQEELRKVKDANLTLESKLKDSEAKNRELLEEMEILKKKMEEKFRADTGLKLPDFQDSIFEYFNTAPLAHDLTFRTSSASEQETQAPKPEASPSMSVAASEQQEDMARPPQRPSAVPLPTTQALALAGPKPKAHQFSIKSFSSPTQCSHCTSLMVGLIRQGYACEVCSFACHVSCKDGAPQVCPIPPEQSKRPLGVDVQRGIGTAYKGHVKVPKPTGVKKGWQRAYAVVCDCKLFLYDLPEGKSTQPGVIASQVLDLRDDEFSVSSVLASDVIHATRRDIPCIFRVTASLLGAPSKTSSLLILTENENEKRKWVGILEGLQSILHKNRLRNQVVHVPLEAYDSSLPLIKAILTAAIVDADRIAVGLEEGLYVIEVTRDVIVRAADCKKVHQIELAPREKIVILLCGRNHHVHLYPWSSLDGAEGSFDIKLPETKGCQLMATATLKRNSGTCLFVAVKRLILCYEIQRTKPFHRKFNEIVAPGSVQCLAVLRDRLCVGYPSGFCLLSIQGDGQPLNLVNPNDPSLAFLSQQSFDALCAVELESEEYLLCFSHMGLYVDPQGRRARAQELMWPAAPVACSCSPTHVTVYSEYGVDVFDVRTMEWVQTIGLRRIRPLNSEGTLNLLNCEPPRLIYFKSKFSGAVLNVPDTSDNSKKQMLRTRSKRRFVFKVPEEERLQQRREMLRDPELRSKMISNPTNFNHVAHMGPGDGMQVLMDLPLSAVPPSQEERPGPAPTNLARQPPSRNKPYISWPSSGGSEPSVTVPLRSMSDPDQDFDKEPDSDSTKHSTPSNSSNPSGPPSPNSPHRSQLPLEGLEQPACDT
T3 sequence (P31152 whole entry): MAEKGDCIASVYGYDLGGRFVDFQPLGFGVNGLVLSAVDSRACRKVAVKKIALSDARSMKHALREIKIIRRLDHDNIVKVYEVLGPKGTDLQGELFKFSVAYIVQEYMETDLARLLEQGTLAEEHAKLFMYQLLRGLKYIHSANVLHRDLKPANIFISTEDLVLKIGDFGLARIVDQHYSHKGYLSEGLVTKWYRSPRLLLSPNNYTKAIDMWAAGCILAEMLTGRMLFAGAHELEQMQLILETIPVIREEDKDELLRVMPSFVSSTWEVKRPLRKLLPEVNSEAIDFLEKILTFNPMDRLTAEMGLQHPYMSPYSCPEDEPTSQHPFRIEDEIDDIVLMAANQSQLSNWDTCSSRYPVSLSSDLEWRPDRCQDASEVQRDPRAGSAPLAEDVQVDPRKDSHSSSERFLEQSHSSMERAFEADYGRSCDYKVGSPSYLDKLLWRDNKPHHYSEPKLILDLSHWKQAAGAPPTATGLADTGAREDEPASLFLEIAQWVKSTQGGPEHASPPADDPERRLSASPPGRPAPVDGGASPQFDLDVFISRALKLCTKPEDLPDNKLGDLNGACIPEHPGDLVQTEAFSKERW
T23 sequence (Q9BYT3 whole entry): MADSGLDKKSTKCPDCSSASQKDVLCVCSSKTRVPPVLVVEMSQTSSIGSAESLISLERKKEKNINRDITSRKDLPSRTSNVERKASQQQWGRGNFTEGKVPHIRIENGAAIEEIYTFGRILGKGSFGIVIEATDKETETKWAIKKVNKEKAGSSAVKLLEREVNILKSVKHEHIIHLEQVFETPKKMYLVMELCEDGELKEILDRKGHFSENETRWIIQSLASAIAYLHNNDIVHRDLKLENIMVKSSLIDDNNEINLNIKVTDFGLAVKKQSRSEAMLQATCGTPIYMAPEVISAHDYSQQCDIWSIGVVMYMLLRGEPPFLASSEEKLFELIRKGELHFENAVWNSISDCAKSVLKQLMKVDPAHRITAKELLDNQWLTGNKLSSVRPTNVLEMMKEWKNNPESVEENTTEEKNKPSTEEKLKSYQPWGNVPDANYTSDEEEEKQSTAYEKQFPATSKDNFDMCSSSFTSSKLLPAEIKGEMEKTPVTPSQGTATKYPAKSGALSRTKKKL
T9 sequence (Q8NFD2 whole entry): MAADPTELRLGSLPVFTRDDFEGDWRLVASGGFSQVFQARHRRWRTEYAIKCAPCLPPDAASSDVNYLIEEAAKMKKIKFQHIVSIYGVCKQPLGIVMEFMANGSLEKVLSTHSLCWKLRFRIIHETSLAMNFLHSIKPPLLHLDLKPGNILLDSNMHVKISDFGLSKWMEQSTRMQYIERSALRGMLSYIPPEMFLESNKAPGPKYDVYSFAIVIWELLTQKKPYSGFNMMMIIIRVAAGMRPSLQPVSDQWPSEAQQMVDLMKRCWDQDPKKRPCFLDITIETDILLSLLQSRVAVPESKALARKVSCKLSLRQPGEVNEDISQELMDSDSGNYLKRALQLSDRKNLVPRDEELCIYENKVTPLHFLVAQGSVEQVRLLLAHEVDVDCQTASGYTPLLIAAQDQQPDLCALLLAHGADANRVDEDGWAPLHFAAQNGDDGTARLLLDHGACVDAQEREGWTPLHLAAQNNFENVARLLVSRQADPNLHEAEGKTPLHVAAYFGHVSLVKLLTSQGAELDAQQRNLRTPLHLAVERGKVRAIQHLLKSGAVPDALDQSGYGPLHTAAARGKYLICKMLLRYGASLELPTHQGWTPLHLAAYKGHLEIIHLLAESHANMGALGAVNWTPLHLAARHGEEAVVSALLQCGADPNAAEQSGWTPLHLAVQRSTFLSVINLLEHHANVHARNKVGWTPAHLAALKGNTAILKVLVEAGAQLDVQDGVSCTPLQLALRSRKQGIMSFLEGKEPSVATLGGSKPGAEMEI
T29 sequence (Q9BWU1 whole entry): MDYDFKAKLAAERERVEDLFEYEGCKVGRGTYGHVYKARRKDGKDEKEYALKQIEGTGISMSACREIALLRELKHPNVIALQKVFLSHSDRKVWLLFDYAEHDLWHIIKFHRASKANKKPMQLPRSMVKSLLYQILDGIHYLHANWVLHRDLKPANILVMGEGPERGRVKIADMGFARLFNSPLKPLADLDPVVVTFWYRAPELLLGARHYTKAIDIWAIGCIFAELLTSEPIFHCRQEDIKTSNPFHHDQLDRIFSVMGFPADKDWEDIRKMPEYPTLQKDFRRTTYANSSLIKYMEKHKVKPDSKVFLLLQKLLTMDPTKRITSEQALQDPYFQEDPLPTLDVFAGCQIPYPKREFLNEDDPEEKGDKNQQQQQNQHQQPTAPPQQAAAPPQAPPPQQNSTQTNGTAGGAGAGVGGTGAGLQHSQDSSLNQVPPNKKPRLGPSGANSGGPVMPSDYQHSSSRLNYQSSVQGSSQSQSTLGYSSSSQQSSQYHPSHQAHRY
T17 sequence (Q8IY84 whole entry): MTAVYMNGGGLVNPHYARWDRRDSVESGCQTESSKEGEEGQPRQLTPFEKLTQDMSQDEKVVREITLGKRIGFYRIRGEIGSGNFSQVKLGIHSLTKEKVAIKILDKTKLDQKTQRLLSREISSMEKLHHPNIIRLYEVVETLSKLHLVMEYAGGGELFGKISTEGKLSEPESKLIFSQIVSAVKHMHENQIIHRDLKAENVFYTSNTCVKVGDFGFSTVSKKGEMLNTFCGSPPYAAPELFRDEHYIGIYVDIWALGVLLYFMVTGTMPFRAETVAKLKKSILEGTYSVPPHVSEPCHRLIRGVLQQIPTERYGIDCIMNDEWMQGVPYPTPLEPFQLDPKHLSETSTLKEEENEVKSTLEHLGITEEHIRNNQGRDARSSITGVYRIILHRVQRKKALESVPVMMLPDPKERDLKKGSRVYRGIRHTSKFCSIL

SMILES: Cc1cccc(-c2cnc3occ(-c4ccc(C(=O)O)c(C5CCCC5)c4)c3c2)c1 [SGC-CAMKK2-1 (YL-36)]
- remaining binding at 1 µM (PRKX): 79%
- Percent Control (FLT3(ITD,F691L)): 100%
- remaining binding at 1 µM (TLK1): 92%
- remaining binding at 1 µM (ERK4): 100%
- remaining binding at 1 µM (CDKL1): 100%
- remaining binding at 1 µM (AKT2): 100%
- remaining binding at 1 µM (ERBB2): 100%
- remaining binding at 1 µM (CASK): 79%
- remaining binding at 1 µM (ERBB4): 100%
- remaining binding at 1 µM (ANKK1): 100%
- remaining binding at 1 µM (FLT3-autoinhibited [1]): 100%
- remaining binding at 1 µM [2]: 100%
- remaining binding at 1 µM (MRCKB): 82%
- remaining binding at 1 µM (FLT1): 93%

SMILES: O=C(O)c1ccc(-c2coc3ncc(-c4ccccc4)cc23)cc1Cl [SGC-CAMKK2-1N (UNC-YL-83)]
- remaining binding at 1 µM (TSSK1B): 83%
- Percent Control (EGFR(L747-T751del,Sins)): 100%
- remaining binding at 1 µM [3]: 37%
- remaining binding at 1 µM (GAK): 88%
- remaining binding at 1 µM (WNK3): 95%
- remaining binding at 1 µM (NIM1): 81%
- remaining binding at 1 µM (EGFR(L861Q)): 100%
- remaining binding at 1 µM (SIK): 100%
- remaining binding at 1 µM (PIK3CA(H1047Y)): 59%
- remaining binding at 1 µM (KIT(A829P)): 86%
- remaining binding at 1 µM (PRKCI): 79%
- remaining binding at 1 µM (STK33): 100%
- remaining binding at 1 µM [4]: 68%
- remaining binding at 1 µM (DAPK3): 71%
- remaining binding at 1 µM (EGFR(E746-A750del)): 100%
- remaining binding at 1 µM (FLT3(R834Q)): 84%
- remaining binding at 1 µM (FLT3-autoinhibited [5]): 91%
- remaining binding at 1 µM (MTOR): 100%
- remaining binding at 1 µM (CDK11): 56%
- remaining binding at 1 µM (CSNK1G3): 76%
